Earlier results in patent US20250345266A1, “READY-TO-INFUSE OXYTOCIN COMPOSITIONS” (AMNEAL PHARMACEUTICALS LLC, priority 2024, published 2025).

CC[C@H](C)[C@@H]1NC(=O)[C@H](Cc2ccc(O)cc2)NC(=O)[C@@H](N)CSSC[C@@H](C(=O)N2CCC[C@H]2C(=O)N[C@@H](CC(C)C)C(=O)NCC(N)=O)NC(=O)[C@H](CC(N)=O)NC(=O)[C@H](CCC(N)=O)NC1=O [Oxytocin]
half-life: about 3 minutes
